From article PMC8900816, “High-resolution structures of the bound effectors avadomide (CC-122) and iberdomide (CC-220) highlight advantages and limitations of the MsCI4 soaking system” (Acta Crystallographica. Section D, Structural Biology, 2022)

Molecular target: T1, MsCI4 (Magnetospirillum gryphiswaldense, UniProt A4TVL0)
T1 construct: gene MGR_0879; wild-type single-domain bacterial cereblon homologue; pETHis1a, E. coli C41(DE3); His tag removed with TEV; three monomers per asymmetric unit; structural zinc; RED-NHS amine-labelled for MST
T1 sequence (A4TVL0 1-124): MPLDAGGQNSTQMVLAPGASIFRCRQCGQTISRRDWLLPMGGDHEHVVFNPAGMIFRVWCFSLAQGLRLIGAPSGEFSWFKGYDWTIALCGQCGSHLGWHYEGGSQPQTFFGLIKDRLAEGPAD
Assay: labelled microscale thermophoresis
Type: binding
Details: read-out: MsCI4 (K d, μM) / Labelled MST

Row | SMILES | Kd
1 | Cc1nc2cccc(N)c2c(=O)n1[C@H]1CCC(=O)NC1=O [Avadomide] | 4.84 ± 0.3 µM
2 | O=C1CC[C@H](N2Cc3c(OCc4ccc(CN5CCOCC5)cc4)cccc3C2=O)C(=O)N1 [Iberdomide] | 0.409 ± 0.03 µM
